Legend:
Galectin-3 = Galectin-3 (Homo sapiens, UniProt P17931); assay: Fluorescence anisotropy assay, affinity for galectin-3; format: binding; settings: compound as inhibitor of the interaction between galectin and a fluorescein tagged saccharide probe
Description: (§1) The affinity of Example 1-43 for galectins were determined by a fluorescence anisotropy assay where the compound was used as an inhibitor of the interaction between galectin and a fluorescein tagged saccharide probe as described Sörme, P., Kahl-Knutsson, B., Huflejt, M., Nilsson, U. J., and Leffler H. (2004) Fluorescence polarization as an analytical tool to evaluate galectin-ligand interactions. Anal. Biochem. 334: 36-47, (Sörme et al., 2004) and Monovalent interactions of Galectin-1 By Salomonsson, Emma; Larumbe, Amaia; Tejler, Johan; Tullberg, Erik; Rydberg, Hanna; Sundin, Anders; Khabut, Areej; Frejd, Torbjomn; Lobsanov, Yuri D.; Rini, James M.; et al, From Biochemistry (2010), 49(44), 9518-9532, (Salomonsson et al., 2010).

Galectin-1 = Galectin-1 (Homo sapiens, UniProt P09382); assay: Fluorescence anisotropy assay, affinity for galectin-1; format: binding; settings: compound as inhibitor of the interaction between galectin and a fluorescein tagged saccharide probe
Galectin-1, sequence (P09382 whole entry): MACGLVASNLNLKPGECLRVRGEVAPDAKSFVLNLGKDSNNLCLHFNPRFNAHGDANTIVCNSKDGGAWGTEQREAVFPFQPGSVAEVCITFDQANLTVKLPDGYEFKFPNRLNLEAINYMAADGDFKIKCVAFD
Description: as §1

Galectin-3, sequence (P17931 whole entry): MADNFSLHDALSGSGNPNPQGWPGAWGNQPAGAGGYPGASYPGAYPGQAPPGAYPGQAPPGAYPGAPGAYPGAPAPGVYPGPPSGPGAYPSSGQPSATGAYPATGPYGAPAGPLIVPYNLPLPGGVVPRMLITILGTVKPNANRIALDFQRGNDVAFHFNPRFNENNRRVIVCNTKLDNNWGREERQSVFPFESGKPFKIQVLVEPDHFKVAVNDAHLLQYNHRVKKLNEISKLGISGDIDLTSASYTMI

| Kd (Galectin-3) [nM] | Kd (Galectin-1) [nM] | Structure (SMILES) |
| --- | --- | --- |
| 270 | 200 | COC1C(n2cc(-n3ccc(Cl)n3)nn2)[C@@H](O)C(CO)O[C@@H]1Sc1cc(Cl)cnc1C(F)(F)F (stereo partly drawn) [Example 6, 5-Chloro-2-(trifluoromethyl)pyridin-3-yl 3-[4-(3-chloro-1H-1,2-pyrazol-1-yl)-1H-1,2,3-triazol-1-yl]-3-deoxy-2-O-methyl-1-thio-α-D-galactopyranoside] |
| 180 | 64 | COC1[C@@H](Sc2cc(Br)cnc2C(=O)NC23CC(C2)C3)OC(CO)[C@H](O)[C@@H]1n1cc(-n2ccc(Cl)n2)nn1 (stereo partly drawn) [Example 39, 5-Bromo-2-(N-bicyclo[1.1.1]pentan-1-ylcarbamoyl)pyridin-3-yl 3-[4-(3-chloro-1H-1,2-pyrazol-1-yl)-1H-1,2,3-triazol-1-yl]-3-deoxy-2-O-methyl-1-thio-α-D-galactopyranoside] |
| 73 | 54 | COC1C(n2cc(-n3ccc(Cl)n3)nn2)[C@@H](O)C(CO)O[C@@H]1Sc1cc(Br)cnc1C(=O)N(C)C (stereo partly drawn) [Example 10, 5-Bromo-2-(N,N-dimethylcarbamoyl)pyridin-3-yl 3-[4-(3-chloro-1H-1,2-pyrazol-1-yl)-1H-1,2,3-triazol-1-yl]-3-deoxy-2-O-methyl-1-thio-α-D-galactopyranoside] |
| 160 | 82 | COC1[C@@H](Sc2cc(Br)cnc2C(=O)NC2CCC2)OC(CO)[C@H](O)[C@@H]1n1cc(-n2ccc(Cl)n2)nn1 (stereo partly drawn) [Example 40, 5-Bromo-2-(N-cyclobutylcarbamoyl)pyridin-3-yl 3-[4-(3-chloro-1H-1,2-pyrazol-1-yl)-1H-1,2,3-triazol-1-yl]-3-deoxy-2-O-methyl-1-thio-α-D-galactopyranoside] |
| 160 | 180 | COC1C(n2cc(-n3ccc(F)n3)nn2)[C@@H](O)C(CO)O[C@@H]1Sc1cc(Br)cnc1C#N (stereo partly drawn) [Example 12, 5-Bromo-2-cyanopyridin-3-yl 3-deoxy-3-[4-(3-fluoro-1H-1,2-pyrazol-1-yl)-1H-1,2,3-triazol-1-yl]-2-O-methyl-1-thio-α-D-galactopyranoside] |
| 140 | 63 | CCNC(=O)c1ncc(Br)cc1S[C@H]1OC(CO)[C@H](O)[C@H](n2cc(-n3ccc(Cl)n3)nn2)C1OC (stereo partly drawn) [Example 35, 5-Bromo-2-(N-ethylcarbamoyl)pyridin-3-yl 3-[4-(3-chloro-1H-1,2-pyrazol-1-yl)-1H-1,2,3-triazol-1-yl]-3-deoxy-2-O-methyl-1-thio-α-D-galactopyranoside] |
| 60 | 72 | COC1C(n2cc(-n3ccc(Cl)n3)nn2)[C@@H](O)C(CO)O[C@@H]1Sc1cc(Br)cnc1C(=O)N(CC1CC1)C(C)C (stereo partly drawn) [Example 31, 5-Bromo-2-[N,N-(cyclopropylmethyl)isopropylcarbamoyl]pyridin-3-yl 3-[4-(3-chloro-1H-1,2-pyrazol-1-yl)-1H-1,2,3-triazol-1-yl]-3-deoxy-2-O-methyl-1-thio-α-D-galactopyranoside] |
| 310 | 500 | OCC1O[C@H](Sc2cncc(Cl)c2)C(O)C(n2cc(-n3ccc(Cl)n3)nn2)[C@H]1O (stereo partly drawn) [Example 5, 5-Chloropyridin-3-yl 3-[4-(3-chloro-1H-1,2-pyrazol-1-yl)-1H-1,2,3-triazol-1-yl]-3-deoxy-1-thio-α-D-galactopyranoside] |
| 1400 | 180 | COC1C(n2cc(-n3ccc(C)n3)nn2)[C@@H](O)C(CO)O[C@@H]1Sc1cc(Br)cnc1C#N (stereo partly drawn) [Example 14, 5-Bromo-2-cyanopyridin-3-yl 3-deoxy-3-[4-(3-methyl-1H-1,2-pyrazol-1-yl)-1H-1,2,3-triazol-1-yl]-2-O-methyl-1-thio-α-D-galactopyranoside] |
| 180 | 80 | COC1[C@@H](Sc2cc(Br)cnc2C(=O)NCCF)OC(CO)[C@H](O)[C@@H]1n1cc(-n2ccc(Cl)n2)nn1 (stereo partly drawn) [Example 38, 5-Bromo-2-[N-(2-fluoroethyl)carbamoyl]pyridin-3-yl 3-[4-(3-chloro-1H-1,2-pyrazol-1-yl)-1H-1,2,3-triazol-1-yl]-3-deoxy-2-O-methyl-1-thio-α-D-galactopyranoside] |
| 1700 | 180 | COC1C(n2cc(-n3cc(F)cn3)nn2)[C@@H](O)C(CO)O[C@@H]1Sc1cc(Br)cnc1C#N (stereo partly drawn) [Example 13, 5-Bromo-2-cyanopyridin-3-yl 3-deoxy-3-[4-(4-fluoro-1H-1,2-pyrazol-1-yl)-1H-1,2,3-triazol-1-yl]-2-O-methyl-1-thio-α-D-galactopyranoside] |
| 140 | 63 | CNC(=O)c1ncc(Br)cc1S[C@H]1OC(CO)[C@H](O)C(n2cc(-n3ccc(Cl)n3)nn2)C1OC (stereo partly drawn) [Example 34, 5-Bromo-2-(N-methylcarbamoyl)pyridin-3-yl 3-[4-(3-chloro-1H-1,2-pyrazol-1-yl)-1H-1,2,3-triazol-1-yl]-3-deoxy-2-O-methyl-1-thio-α-D-galactopyranoside] |
| 210 | 150 | COC1C(n2cc(-n3ccc(Cl)n3)nn2)[C@@H](O)C(CO)O[C@@H]1Sc1cc(Br)cnc1C(F)(F)F (stereo partly drawn) [Example 7, 5-Bromo-2-(trifluoromethyl)pyridin-3-yl 3-[4-(3-chloro-1H-1,2-pyrazol-1-yl)-1H-1,2,3-triazol-1-yl]-3-deoxy-2-O-methyl-1-thio-α-D-galactopyranoside] |
| 68 | 74 | COC1C(n2cc(-n3ccc(Cl)n3)nn2)[C@@H](O)C(CO)O[C@@H]1Sc1cc(Br)cnc1C(=O)N(CC1CC1)OC (stereo partly drawn) [Example 33, 5-Bromo-2-[N,N-(cyclopropylmethyl)methoxycarbamoyl]pyridin-3-yl 3-[4-(3-chloro-1H-1,2-pyrazol-1-yl)-1H-1,2,3-triazol-1-yl]-3-deoxy-2-O-methyl-1-thio-α-D-galactopyranoside] |
| 63 | 110 | COC1C(n2cc(-n3ccc(Cl)n3)nn2)[C@@H](O)C(CO)O[C@@H]1Sc1cc(Br)cnc1C(=O)N(CC(C)C)C(C)C (stereo partly drawn) [Example 32, 5-Bromo-2-(N,N-isobutylisopropylcarbamoyl)pyridin-3-yl 3-[4-(3-chloro-1H-1,2-pyrazol-1-yl)-1H-1,2,3-triazol-1-yl]-3-deoxy-2-O-methyl-1-thio-α-D-galactopyranoside] |
| 160 | 57 | CNC(=O)c1ccc(Br)cc1S[C@H]1OC(CO)[C@H](O)C(n2cc(-n3ccc(Cl)n3)nn2)C1OC (stereo partly drawn) [Example 1, 5-Bromo-2-(N-methyl-carbonyl)phenyl 3-[4-(3-chloro-1H-1,2-pyrazol-1-yl)-1H-1,2,3-triazol-1-yl]-3-deoxy-2-O-methyl-1-thio-α-D-galactopyranoside] |
| 83 | 120 | COC1C(n2cc(-n3ccc(Cl)n3)nn2)[C@@H](O)C(CO)O[C@@H]1Sc1cc(Br)cnc1C(=O)N(CC1CC1)CC1CC1 (stereo partly drawn) [Example 24, 5-Bromo-2-[N,N-bis(cyclopropylmethyl)carbamoyl]pyridin-3-yl 3-[4-(3-chloro-1H-1,2-pyrazol-1-yl)-1H-1,2,3-triazol-1-yl]-3-deoxy-2-O-methyl-1-thio-α-D-galactopyranoside] |
| 420 | 520 | COC1C(n2cc(-n3cc(Cl)cn3)nn2)[C@@H](O)C(CO)O[C@@H]1Sc1cc(Br)cnc1C#N (stereo partly drawn) [Example 11, 5-Bromo-2-cyanopyridin-3-yl 3-[4-(4-chloro-1H-1,2-pyrazol-1-yl)-1H-1,2,3-triazol-1-yl]-3-deoxy-2-O-methyl-1-thio-α-D-galactopyranoside] |
| 260 | 380 | COC1C(n2cc(-n3ccc(Cl)n3)nn2)[C@@H](O)C(CO)O[C@@H]1Sc1cc(Br)cnc1C(=O)N(CC1CCC1)CC1CCC1 (stereo partly drawn) [Example 27, 5-Bromo-2-[N,N-bis(cyclobutylmethyl)carbamoyl]pyridin-3-yl 3-[4-(3-chloro-1H-1,2-pyrazol-1-yl)-1H-1,2,3-triazol-1-yl]-3-deoxy-2-O-methyl-1-thio-α-D-galactopyranoside] |
| 120 | 130 | COC1C(n2cc(-n3ccc(Cl)n3)nn2)[C@@H](O)C(CO)O[C@@H]1Sc1cc(Br)cnc1C#N (stereo partly drawn) [Example 3, 5-Bromo-2-cyanopyridin-3-yl 3-[4-(3-chloro-1H-1,2-pyrazol-1-yl)-1H-1,2,3-triazol-1-yl]-3-deoxy-2-O-methyl-1-thio-α-D-galactopyranoside] |

From patent publication US20240287122A1, “NOVEL GALACTOSIDE INHIBITOR OF GALECTINS” (GALECTO BIOTECH AB, priority 2020, published 2024)
